From US11739098B2 (BRISTOL-MYERS SQUIBB COMPANY, priority 2017, dated 2023)

Tests used:
Format in all cases: cell-based
human TLR7 = molecular target: T1, human TLR7 (Homo sapiens, UniProt Q9NYK1); test: TLR7 inhibition reporter assay (HEK-Blue cells, SEAP reporter, gardiquimod stimulation); details: HEK-Blue cells overexpressing human TLR7, SEAP reporter, gardiquimod 7.5 μM
T1 construct: host or cells: HEK-Blue cells (HEK293-derived reporter line)
T1 sequence (Q9NYK1 27-1049): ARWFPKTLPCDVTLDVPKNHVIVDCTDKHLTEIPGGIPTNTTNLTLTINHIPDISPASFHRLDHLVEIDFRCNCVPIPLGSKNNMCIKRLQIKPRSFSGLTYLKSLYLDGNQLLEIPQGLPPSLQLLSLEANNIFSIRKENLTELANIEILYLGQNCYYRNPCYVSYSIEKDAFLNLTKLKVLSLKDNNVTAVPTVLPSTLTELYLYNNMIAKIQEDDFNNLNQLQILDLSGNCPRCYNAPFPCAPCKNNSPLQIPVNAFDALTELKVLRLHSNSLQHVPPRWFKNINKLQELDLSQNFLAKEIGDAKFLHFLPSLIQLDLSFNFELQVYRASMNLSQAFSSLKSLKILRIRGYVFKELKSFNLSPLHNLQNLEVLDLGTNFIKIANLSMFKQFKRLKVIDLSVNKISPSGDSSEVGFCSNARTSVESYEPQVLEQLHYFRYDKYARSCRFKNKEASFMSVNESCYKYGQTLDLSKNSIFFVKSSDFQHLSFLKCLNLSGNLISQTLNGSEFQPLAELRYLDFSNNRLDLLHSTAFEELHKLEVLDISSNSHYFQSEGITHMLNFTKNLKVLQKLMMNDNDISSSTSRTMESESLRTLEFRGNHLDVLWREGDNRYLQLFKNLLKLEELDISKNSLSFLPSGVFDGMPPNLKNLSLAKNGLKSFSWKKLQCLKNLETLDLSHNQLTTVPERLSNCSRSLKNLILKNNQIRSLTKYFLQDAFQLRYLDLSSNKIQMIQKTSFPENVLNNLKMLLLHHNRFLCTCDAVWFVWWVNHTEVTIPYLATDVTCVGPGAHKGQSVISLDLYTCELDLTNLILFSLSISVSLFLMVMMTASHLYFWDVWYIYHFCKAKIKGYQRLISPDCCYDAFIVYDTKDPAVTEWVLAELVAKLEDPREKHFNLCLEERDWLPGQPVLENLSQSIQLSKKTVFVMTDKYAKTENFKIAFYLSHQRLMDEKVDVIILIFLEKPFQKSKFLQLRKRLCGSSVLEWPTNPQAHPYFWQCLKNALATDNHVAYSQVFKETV
Procedure, shortened: (§1)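 Read-out is SEAP activity in HEK-Blue detection medium after 22 h at 37 °C, converted to percent inhibition against agonist-plus-DMSO and reference-inhibitor controls. Cells saw compound (0.05 nM–50 μM, 30 min, room temperature) before gardiquimod 7.5 μM, R848 15.9 μM or ODN2006 5 nM for TLR7, TLR8 and TLR9, respectively.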

human TLR8 = molecular target: T2, human TLR8 (Homo sapiens, UniProt Q9NR97); test: TLR8 inhibition reporter assay (HEK-Blue cells, SEAP reporter, R848 stimulation); details: HEK-Blue cells overexpressing human TLR8, SEAP reporter, R848 15.9 μM
T2 construct: host or cells: HEK-Blue cells (HEK293-derived reporter line)
T2 sequence (Q9NR97 27-1041): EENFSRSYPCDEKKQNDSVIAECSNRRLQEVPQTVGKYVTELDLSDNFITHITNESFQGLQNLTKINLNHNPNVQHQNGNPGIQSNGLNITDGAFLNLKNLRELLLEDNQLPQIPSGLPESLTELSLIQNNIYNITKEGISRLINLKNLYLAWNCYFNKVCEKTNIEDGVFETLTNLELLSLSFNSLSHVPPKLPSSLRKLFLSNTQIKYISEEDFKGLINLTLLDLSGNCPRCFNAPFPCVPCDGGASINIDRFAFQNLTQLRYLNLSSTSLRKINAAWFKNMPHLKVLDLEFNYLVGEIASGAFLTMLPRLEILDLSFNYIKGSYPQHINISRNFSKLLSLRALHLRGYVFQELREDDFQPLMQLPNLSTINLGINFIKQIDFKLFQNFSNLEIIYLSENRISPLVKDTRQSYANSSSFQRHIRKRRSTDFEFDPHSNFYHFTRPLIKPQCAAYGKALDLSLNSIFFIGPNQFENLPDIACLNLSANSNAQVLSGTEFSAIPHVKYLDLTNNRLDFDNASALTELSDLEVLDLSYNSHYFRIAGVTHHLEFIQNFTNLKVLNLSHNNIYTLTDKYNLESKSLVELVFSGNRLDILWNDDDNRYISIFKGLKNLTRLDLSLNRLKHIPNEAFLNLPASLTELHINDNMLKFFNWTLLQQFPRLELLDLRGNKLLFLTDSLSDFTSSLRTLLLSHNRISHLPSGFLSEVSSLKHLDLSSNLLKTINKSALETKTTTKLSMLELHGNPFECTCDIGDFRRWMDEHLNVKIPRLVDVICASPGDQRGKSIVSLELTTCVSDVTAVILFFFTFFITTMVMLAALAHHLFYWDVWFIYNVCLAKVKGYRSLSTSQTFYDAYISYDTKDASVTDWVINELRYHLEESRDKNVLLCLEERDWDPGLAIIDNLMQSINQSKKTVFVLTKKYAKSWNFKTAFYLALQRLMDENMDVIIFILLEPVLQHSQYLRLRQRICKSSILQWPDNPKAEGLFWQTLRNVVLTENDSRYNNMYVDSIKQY
Procedure, shortened: as §1

human TLR9 = molecular target: T3, human TLR9 (Homo sapiens, UniProt Q9NR96); test: TLR9 inhibition reporter assay (HEK-Blue cells, SEAP reporter, ODN2006 stimulation); details: HEK-Blue cells overexpressing human TLR9, SEAP reporter, ODN2006 5 nM
T3 construct: host or cells: HEK-Blue cells (HEK293-derived reporter line)
T3 sequence (Q9NR96 26-1032): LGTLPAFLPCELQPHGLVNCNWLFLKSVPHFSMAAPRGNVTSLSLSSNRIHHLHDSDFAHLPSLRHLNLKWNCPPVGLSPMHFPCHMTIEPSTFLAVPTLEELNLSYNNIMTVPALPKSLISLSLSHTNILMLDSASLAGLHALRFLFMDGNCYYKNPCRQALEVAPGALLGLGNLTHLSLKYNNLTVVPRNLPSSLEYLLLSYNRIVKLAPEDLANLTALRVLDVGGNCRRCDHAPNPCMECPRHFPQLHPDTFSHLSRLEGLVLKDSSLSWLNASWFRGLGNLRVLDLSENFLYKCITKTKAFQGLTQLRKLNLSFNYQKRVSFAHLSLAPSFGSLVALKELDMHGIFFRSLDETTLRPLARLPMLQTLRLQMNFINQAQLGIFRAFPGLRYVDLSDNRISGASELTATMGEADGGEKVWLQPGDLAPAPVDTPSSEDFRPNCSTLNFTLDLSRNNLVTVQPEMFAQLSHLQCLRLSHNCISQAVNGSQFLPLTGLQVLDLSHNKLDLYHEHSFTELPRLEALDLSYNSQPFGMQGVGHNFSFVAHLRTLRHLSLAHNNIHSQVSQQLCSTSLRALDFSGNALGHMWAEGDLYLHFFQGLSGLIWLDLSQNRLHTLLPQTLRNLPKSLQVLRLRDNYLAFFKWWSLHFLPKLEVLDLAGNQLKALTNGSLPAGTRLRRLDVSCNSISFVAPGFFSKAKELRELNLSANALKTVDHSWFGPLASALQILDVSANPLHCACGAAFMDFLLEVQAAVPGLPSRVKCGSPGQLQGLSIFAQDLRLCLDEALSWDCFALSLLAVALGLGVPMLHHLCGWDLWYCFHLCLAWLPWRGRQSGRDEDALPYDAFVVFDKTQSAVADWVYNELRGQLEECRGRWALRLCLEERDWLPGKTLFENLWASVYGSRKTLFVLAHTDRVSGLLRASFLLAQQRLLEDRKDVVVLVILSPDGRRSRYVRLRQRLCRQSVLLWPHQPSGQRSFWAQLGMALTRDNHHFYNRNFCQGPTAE
Procedure, shortened: as §1

Structure (SMILES)	IC50 (human TLR7)	IC50 (human TLR8)	IC50 (human TLR9)
Cc1cc(-c2[nH]c3ccc(C4CCN(C(=O)CN5[C@@H]6CC[C@H]5COC6)CC4)cc3c2C(C)C)cn2nnnc12 [Example 479, 2-((1R,5S)-3-oxa-8-azabicyclo[3.2.1]octan-8-yl)-1-(4-(3-isopropyl-2-(8-methyltetrazolo[1,5-a]pyridin-6-yl)-1H-indol-5-yl)piperidin-1-yl)ethan-1-one]	< 100 nM	< 100 nM	1000 to 50000 nM
Cc1cc(-c2[nH]c3ccc(C4CCN(CC(=O)N(C)C)CC4)cc3c2C(C)C)c2ccccc2n1 [Example 327, 2-(4-(3-isopropyl-2-(2-methylquinolin-4-yl)-1H-indol-5-yl)piperidin-1-yl)-N,N-dimethylacetamide]	< 100 nM	< 100 nM	1000 to 50000 nM
Cc1ncc(CN2CCC(c3ccc4[nH]c(-c5cn(C)c6ncccc56)c(C(C)C)c4c3)CC2)cn1 [Example 876, 3-(3-isopropyl-5-(1-((2-methylpyrimidin-5-yl)methyl)piperidin-4-yl)-1H-indol-2-yl)-1-methyl-1H-pyrrolo[2,3-b]pyridine]	< 100 nM	< 100 nM	1000 to 50000 nM
CCc1c(-c2cnc3[nH]ncc3c2)[nH]c2ccc(C3CCN(C4CCN(C(C)C)CC4)CC3)cc12 [Example 819, 5-(3-ethyl-5-(1′-isopropyl-[1,4′-bipiperidin]-4-yl)-1H-indol-2-yl)-1H-pyrazolo[3,4-b]pyridine]	100 to 1000 nM	< 100 nM	100 to 1000 nM
Cc1cn2cc(-c3[nH]c4ccc(C5CCN(CC(=O)N(C)C)CC5)cc4c3C(C)C)cc(C(F)(F)F)c2n1 [Example 376, 2-(4-(3-isopropyl-2-(2-methyl-8-(trifluoromethyl)imidazo[1,2-a]pyridin-6-yl)-1H-indol-5-yl)piperidin-1-yl)-N,N-dimethylacetamide]	< 100 nM	100 to 1000 nM	100 to 1000 nM
Cc1c(-c2[nH]c3ccc(C4CCNCC4)cc3c2C(C)C)cn2ccnc2c1C(C)C [Example 273, 8-isopropyl-6-(3-isopropyl-5-(piperidin-4-yl)-1H-indol-2-yl)-7-methylimidazo[1,2-a]pyridine]	< 100 nM	100 to 1000 nM	100 to 1000 nM
CNC(=O)CN1CCC(c2ccc3[nH]c(-c4cc(CC(C)C)n5nc(C)cc5c4)c(C(C)C)c3c2)CC1 [Example 392, 2-(4-(2-(7-isobutyl-2-methylpyrazolo[1,5-a]pyridin-5-yl)-3-isopropyl-1H-indol-5-yl)piperidin-1-yl)-N-methylacetamide]	> 3130 nM	> 3130 nM	1000 to 50000 nM
CNC(=O)c1cn2cc(-c3[nH]c4ccc(C5CCNCC5)cc4c3C(C)C)cc(C)c2n1 [Example 264, 6-(3-isopropyl-5-(piperidin-4-yl)-1H-indol-2-yl)-N,8-dimethylimidazo[1,2-a]pyridine-2-carboxamide]	< 100 nM	< 100 nM	100 to 1000 nM

Second part, the compound after the results:

IC50 (human TLR7)	IC50 (human TLR8)	IC50 (human TLR9)	Structure (SMILES)
< 100 nM	< 100 nM	1000 to 50000 nM	CC(C)c1c(-c2cnc3c(cnn3C)c2)[nH]c2ccc(C3CCN(CC(=O)N(C)C)CC3)cc12 [Example 367, 2-(4-(3-isopropyl-2-(1-methyl-1H-pyrazolo[3,4-b]pyridin-5-yl)-1H-indol-5-yl)piperidin-1-yl)-N,N-dimethylacetamide]
< 100 nM	< 100 nM	100 to 1000 nM	CC(C)c1c(-c2ccnc3[nH]ncc23)[nH]c2ccc(C3CCN(C4CCCNC4)CC3)cc12 (stereo not drawn) [Example 653, 4-(5-([1,3′-bipiperidin]-4-yl)-3-isopropyl-1H-indol-2-yl)-1H-pyrazolo[3,4-b]pyridine]
< 100 nM	100 to 1000 nM	1000 to 50000 nM	COc1cc(-c2[nH]c3ccc(C4CCN(CC(=O)N(C)C)CC4)cc3c2C(C)C)nn2ncnc12 [Example 283, 2-(4-(3-isopropyl-2-(8-methoxy-[1,2,4]triazolo[1,5-b]pyridazin-6-yl)-1H-indol-5-yl)piperidin-1-yl)-N,N-dimethylacetamide]
< 100 nM	< 100 nM	1000 to 50000 nM	CC(C)c1c(-c2ccnc3[nH]ncc23)[nH]c2ccc(C3CCNCC3F)cc12 (stereo not drawn) [Example 172, 4-(5-(3-fluoropiperidin-4-yl)-3-isopropyl-1H-indol-2-yl)-1H-pyrazolo[3,4-b]pyridine]
< 100 nM	< 100 nM	1000 to 50000 nM	CNC(=O)CN1CCC(c2ccc3[nH]c(-c4ccn5nnc(C)c5c4)c(C(C)C)c3c2)CC1 [Example 319, 2-(4-(3-isopropyl-2-(3-methyl-[1,2,3]triazolo[1,5-a]pyridin-5-yl)-1H-indol-5-yl)piperidin-1-yl)-N-methylacetamide]
< 100 nM	< 100 nM	100 to 1000 nM	CC(C)c1c(-c2cc(CO)c3nccn3c2)[nH]c2ccc(C3CCN(C(=O)CN(C)C)CC3)cc12 [Example 492, 2-(dimethylamino)-1-(4-(2-(8-(hydroxymethyl)imidazo[1,2-a]pyridin-6-yl)-3-isopropyl-1H-indol-5-yl)piperidin-1-yl)ethan-1-one]
